{
  "source": "patent US12435320B2",
  "about": "“CRISPR having or associated with destabilization domains” (The Broad Institute, Inc., priority 2014, dated 2025)",
  "key": {"Factor VII": {"tested_on": "Factor VII", "details": "LNP siRNA systems containing these lipids; hepatocytes in vivo; cited from earlier work"}, "Mutants of human FKBP12": {"tested_on": "Mutants of human FKBP12", "details": "cited from earlier work"}, "EGFP gene [1]": {"tested_on": "EGFP gene", "assay": "U2OS.EGFP knockdown assay, loss of EGFP fluorescence, high-content automated microscope imaging", "assay_type": "cell-based", "details": "ligand added to the DD-SpCas9-DD fusion protein and EGFP guide RNA", "excerpt": "The low throughput, flow cytometry-readout was replaced with a high-throughput readout using a high-content, automated microscope imaging. This assay can be run in a 96-well format and the data can be analyzed by a high-throughput image analysis platform, called ImageExpress."}, "EGFP gene [2]": {"tested_on": "EGFP gene", "assay": "Decrease in EGFP positive cells in an EGFP-producing cell line treated with SpCas9-DD fusion protein and guide RNA", "assay_type": "cell-based", "details": "DHFR-SpCas9-DHFR (DSPD); increasing dosages of TMP"}, "mammalian DHFR (DHFRts)": {"tested_on": "mammalian DHFR (DHFRts)", "details": "addition to cells expressing DHFRts; cited from earlier work"}, "[3]": {"tested_on": "human embryonic stem cells (hESCs)", "assay": "Mutagenic NHEJ by Cas9-D10A nickase in human embryonic stem cells", "assay_type": "cell-based", "description": "The CRISPR enzyme is Cas9, and may be Cas9 from S. pyogenes or S. pneumoniae. In some embodiments, the CRISPR enzyme directs cleavage of one or both strands at the location of a target sequence, such as within the target sequence and/or within the complement of the target sequence. In some embodiments, the CRISPR enzyme directs cleavage of one or both strands within about 1, 2, 3, 4, 5, 6, 7, 8, 9, 10, 15, 20, 25, 50, 100, 200, 500, or more base pairs from the first or last nucleotide of a target sequence. In some embodiments, a vector encodes a CRISPR enzyme that is mutated to with respect to a corresponding wild-type enzyme such that the mutated CRISPR enzyme lacks the ability to cleave one or both strands of a target polynucleotide containing a target sequence. […] In some embodiments, a Cas9 nickase may be used in combination with guide sequenc(es), e.g., two guide sequences, which target respectively sense and antisense strands of the DNA target. This combination allows both strands to be nicked and used to induce NHEJ."}, "[4]": {"assay": "Double nicking indel formation with sgRNA pairs", "assay_type": "cell-based", "details": "substitution of Cas9n with Cas9H840A with a given sgRNA pair; eukaryotic system", "description": "Aspects of the invention relate to the expression of the gene product being decreased or a template polynucleotide being further introduced into the DNA molecule encoding the gene product or an intervening sequence being excised precisely by allowing the two 5′ overhangs to reanneal and ligate or the activity or function of the gene product being altered or the expression of the gene product being increased. In an embodiment of the invention, the gene product is a protein. Only sgRNA pairs creating 5′ overhangs with less than 8 bp overlap between the guide sequences (offset greater than −8 bp) were able to mediate detectable indel formation. […] Nonetheless, a pair of sgRNAs that will generate a 5′ overhang with Cas9n should in principle generate the corresponding 3′ overhang instead, and double nicking. […] Accordingly, in some embodiments, a recombination template is also provided. A recombination template may be a component of another vector as described herein, contained in a separate vector, or provided as a separate polynucleotide. In some embodiments, a recombination template is designed to serve as a template in homologous recombination, such as within or near a target sequence nicked or cleaved by a CRISPR enzyme as a part of a CRISPR complex. […]"}, "dystrophin": {"tested_on": "dystrophin", "details": "across 48 weeks; cited from earlier work"}},
  "data": [
    {"molecule": "1,2-dilinoleyloxy-keto-N,N-dimethyl-3-aminopropane [DLinKDMA]", "values": [
      {"measurement": "gene silencing potency series", "setting": "Factor VII", "result": "DLinKC2-DMA>DLinKDMA>DLinDMA>>DLinDAP"}
    ]},
    {"molecule": "CCCCC/C=C\\C/C=C\\CCCCCCCC(=O)OCC(CN(C)C)OC(=O)CCCCCCC/C=C\\C/C=C\\CCCCC", "note": "(stereo not shown) [DLinDAP, 1,2-dilineoyl-3-dimethylammonium-propane]", "values": [
      {"measurement": "gene silencing potency series", "setting": "Factor VII", "result": "DLinKC2-DMA>DLinKDMA>DLinDMA>>DLinDAP"}
    ]},
    {"molecule": "CCCCC/C=C\\C/C=C\\CCCCCCCCOCC(CN(C)C)OCCCCCCCC/C=C\\C/C=C\\CCCCC", "note": "(stereo not shown) [DLinDMA, 1,2-dilinoleyloxy-3-N,N-dimethylaminopropane]", "values": [
      {"measurement": "gene silencing potency series", "setting": "Factor VII", "result": "DLinKC2-DMA>DLinKDMA>DLinDMA>>DLinDAP"}
    ]},
    {"molecule": "CCCCC/C=C\\C/C=C\\CCCCCCCCC1(CCCCCCCC/C=C\\C/C=C\\CCCCC)OCC(CCN(C)C)O1", "note": "(stereo not shown) [DLinKC2-DMA, 1,2-dilinoleyl-4-(2-dimethylaminoethyl)-[1,3]-dioxolane]", "values": [
      {"measurement": "gene silencing potency series", "setting": "Factor VII", "result": "DLinKC2-DMA>DLinKDMA>DLinDMA>>DLinDAP"}
    ]},
    {"molecule": "CC[C@H](C(=O)N1CCCC[C@H]1C(=O)O[C@H](CCc1ccc(OC)c(OC)c1)c1cccc(OCCN2CCOCC2)c1)c1cc(OC)c(OC)c(OC)c1", "note": "[Shield-1]", "values": [
      {"measurement": "binding and stabilization of the DD", "setting": "Mutants of human FKBP12", "result": "bind to and stabilize the DD in a dose-dependent manner"}
    ]},
    {"molecule": "COc1cc(Cc2cnc(N)nc2N)cc(OC)c1OC", "note": "[TMP, trimethoprim]", "values": [
      {"measurement": "Effect of added DD ligand on the fusion protein's reduction of EGFP fluorescence", "setting": "EGFP gene [1]", "result": "increased the effect of the DSPD fusion protein in a dose-dependent manner"},
      {"measurement": "effect of ligand addition on the effect of the SpCas9-DD fusion protein", "setting": "EGFP gene [2]", "result": "increased the effect of the SpCas9-DD fusion protein in a dose-dependent manner"}
    ]},
    {"molecule": "CN(Cc1cnc2nc(N)nc(N)c2n1)c1ccc(C(=O)N[C@@H](CCC(=O)O)C(=O)O)cc1", "note": "[methotrexate]", "values": [
      {"measurement": "degradation of DHFRts protein", "setting": "mammalian DHFR (DHFRts)", "result": "inhibited degradation of the protein partially"}
    ]},
    {"molecule": "Cas9-D10A: Cas9 nickase with the D10A mutation", "values": [
      {"measurement": "efficiency relative to nuclease (regular Cas9 without D10 mutation)", "setting": "[3]; double nickase, two sgRNAs targeted to different strands at the same location, hESCs", "result": "about 50%"},
      {"measurement": "induction of NHEJ and indels", "setting": "[3]; single nickase, with a single sgRNA", "result": "unable to induce NHEJ and create indels"}
    ]},
    {"molecule": "Cas9H840A: Cas9 with the H840A mutation", "values": [
      {"measurement": "indel formation", "setting": "[4]", "result": "no indel formation is observed"}
    ]},
    {"molecule": "eteplirsen", "values": [
      {"measurement": "Dystrophin positive fibers compared to baseline, average", "setting": "dystrophin", "result": 47, "unit": "%"},
      {"measurement": "Functional benefit", "setting": "dystrophin", "result": "significant functional benefit"}
    ]}
  ]
}
